{"source": "paper PMC2907420", "about": "(Journal of pharmaceutical and biomedical analysis, 2010)", "key": {"[1]": {"settings": "depending on storage conditions; cited from earlier work"}, "[2]": {"molecular_target": "T1, glycated HSA (gHSA1) (Homo sapiens, UniProt P02768)", "T1 sequence (P02768 25-609)": "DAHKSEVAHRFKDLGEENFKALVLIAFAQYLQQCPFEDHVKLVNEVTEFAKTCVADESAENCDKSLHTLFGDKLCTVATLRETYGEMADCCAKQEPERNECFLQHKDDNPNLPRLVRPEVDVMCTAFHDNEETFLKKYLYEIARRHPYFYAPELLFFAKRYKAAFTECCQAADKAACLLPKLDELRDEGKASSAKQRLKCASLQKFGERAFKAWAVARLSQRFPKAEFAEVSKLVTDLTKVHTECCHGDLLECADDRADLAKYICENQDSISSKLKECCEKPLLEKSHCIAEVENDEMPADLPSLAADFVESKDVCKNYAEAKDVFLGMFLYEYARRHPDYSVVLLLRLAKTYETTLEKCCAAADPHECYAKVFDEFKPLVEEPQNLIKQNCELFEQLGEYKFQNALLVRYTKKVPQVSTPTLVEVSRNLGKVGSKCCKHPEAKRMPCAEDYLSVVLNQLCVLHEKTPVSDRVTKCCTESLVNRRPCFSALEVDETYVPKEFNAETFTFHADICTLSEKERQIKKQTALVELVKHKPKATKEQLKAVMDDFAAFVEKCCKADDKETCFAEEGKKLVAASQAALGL", "settings": "gHSA1 column"}, "[3]": {"molecular_target": "T2, glycated HSA (gHSA3) (Homo sapiens, UniProt P02768)", "T2 sequence (P02768 25-609)": "as above", "test": "biochemical"}, "[4]": {"molecular_target": "T3, glycated HSA (Homo sapiens, UniProt P02768)", "T3 sequence (P02768 25-609)": "as above", "settings": "4°C, comparable glycation conditions; cited from earlier work"}, "[5]": {"molecular_target": "T3, glycated HSA", "settings": "pH 7.4, 37°C; versus reported Ka of 1.1 × 10^4 M^−1 for normal HSA"}, "[6]": {"molecular_target": "T2, glycated HSA (gHSA3)", "settings": "gHSA3 column"}, "[7]": {"molecular_target": "T1, glycated HSA (gHSA1)", "test": "biochemical"}, "[8]": {"system": "normal HSA", "settings": "normal HSA columns, 37°C; cited from earlier work"}, "[9]": {"molecular_target": "T4, glycated HSA (gHSA2) (Homo sapiens, UniProt P02768)", "T4 sequence (P02768 25-609)": "as above", "test": "biochemical"}, "[10]": {"molecular_target": "T4, glycated HSA (gHSA2)", "settings": "gHSA2 column"}, "[11]": {"settings": "binding capacity normalized for protein content"}, "[12]": {"settings": "moles of active binding sites, Eqn. 3"}}}
{"smiles": "N[C@@H](Cc1c[nH]c2ccccc12)C(=O)O", "note": "[L-Tryptophan, L-tryptophan]", "values": [{"measurement": "time over which solutions decrease in stability", "setting": "[1]", "value": "2 to 9", "unit": "days"}, {"measurement": "Specific Activity", "setting": "[2]; [11]", "value": "0.36 (± 0.08) mol/mol HSA"}, {"measurement": "mL", "setting": "[2]; [12]", "value": "5.0 (± 0.9) × 10^−9 mol"}, {"measurement": "Kd", "setting": "[3]", "value": 17.5, "unit": "µM"}, {"measurement": "decrease in affinity, glycated HSA versus HSA", "setting": "[4]", "value": "≤ 0.6", "unit": "fold"}, {"measurement": "increase in binding affinity (Ka) with glycated HSA versus normal HSA", "setting": "[5]", "value": "4.7–5.8 fold"}, {"measurement": "Specific Activity", "setting": "[6]; [11]", "value": "0.31 (± 0.04) mol/mol HSA"}, {"measurement": "mL", "setting": "[6]; [12]", "value": "5.8 (± 0.6) × 10^−9 mol"}, {"measurement": "Kd", "setting": "[7]", "value": 19.2, "unit": "µM"}, {"measurement": "association equilibrium constant", "setting": "[8]", "value": 11000, "unit": "M⁻¹"}, {"measurement": "Kd", "setting": "[9]", "value": 15.6, "unit": "µM"}, {"measurement": "Specific Activity", "setting": "[10]; [11]", "value": "0.30 (± 0.05) mol/mol HSA"}, {"measurement": "mL", "setting": "[10]; [12]", "value": "6.7 (± 1.8) × 10^−9 mol"}]}
